Assay results as given in US20240180931A1, “CANNABINOIDS AND USES THEREOF IN TREATMENT OF A DISEASE” (TECHNION RESEARCH & DEVELOPMENT FOUNDATION LIMITED, priority 2021, published 2024).

Assays:
[1] = system: pCREB^S133 / ATF1 / PCNA in HaCaT cells; experiment: western blot analysis of treated HaCaT cells (pCREB, ATF1, PCNA); type: cell-based, human; conditions: for levels of active pCREB^S133 or ATF1 (western blot): HaCaT treated cells (FIG. 11B)
Protocol: (§1) In order to examine the underlying mechanism, the inventors next examined whether increased repair and proliferation is facilitated via the CAMP response element binding protein (CREB). First, the inventors utilized human keratinocyte cells (HaCaT). Cells were starved (serum-free) for 16 hours and then administered with Dimethyl sulfoxide (DMSO; carrier/solvent control), White Widow (WW) extract or cannabigerol (CBG). Next, the inventors performed immunofluorescence for activated phosphorylated CREB using specific antibodies.
In order to verify these findings, the inventors next performed western blot analysis of treated cells (as outlined above).

[2] = system: NF-kappa-B (p65; NF-κB) transcription factor; experiment: TNF-α-induced NF-κB (p65) translocation in HaCaT keratinocytes, immunofluorescence; type: cell-based, Human; conditions: 30 minutes; for translocation of NF-kappa-B (p65) to the nucleus: serum starved 16 hours, extract 1 μg/ml, cannabinoids 10 μM (FIG. 4A)
Protocol: In order to examine the underlying mechanism, the inventors next examined whether improving health of the epidermis in psoriasis is dependent upon the NF-kappa-B (p65; NF-κB) transcription factor. NF-κB transcription factor is known to be active in psoriasis and high expression of its target genes leads to enhanced proliferation and inflammation (Goldminz et al., 2012). Human keratinocyte cells (HaCaT) were utilized. Cells were serum starved for 16 hours and then either non-treated (NTC) or administered with TNF-α along with either DMSO (Ctrl), Infinity (INF) extract, CBN, CBG, or THC at a concentration according to Table 2. Immunofluorescence was next performed for activated NF-κB using specific antibodies. The present data clearly indicate that, in response to TNF-α, the NF-κB (p65) transcription factor translocated to the nucleus.

[3] = system: cAMP response element binding protein (CREB); experiment: CREB phosphorylation in HaCaT keratinocytes, immunofluorescence; type: cell-based, human; conditions: serum-free 16 hours, 30 minutes post-stimulation, WW 1 μg/ml, CBG 10 μM (FIG. 11A)
Protocol: as §1

[4] = system: 1 cm^2 whole-thickness dorsal wounds; experiment: whole-thickness dorsal wound healing and regeneration in mice; type: in vivo; conditions: for wound healing by single cannabinoids, compared with WW strain: IP every second day, CBG 0.11 mg/kg, THC 3.7 mg/kg (FIGS. 10B-10C)
Protocol: To this end, 1 cm^2 whole-thickness dorsal wounds were inflicted on male or female 8-week-old wildtype (WT; C57BL/6J background) mice (n=at least 3 mice per group) and the wounded mice were treated with 5 mg/kg of each strain via intraperitoneal (IP) injection every two days (FIG. 9D). Dorsal wound coverage was measured by determining wound size (%) relative to the initial wound size.
Next, the inventors sought to understand whether any single cannabinoid component of the WW strain could potentiate the WW-induced phenotypes (FIG. 10A). For this, male and female mice (8-weeks-old) on WT (wild type; C57BL/6J) background were administered IP injections of cannabigerol (CBG; 0.11 mg/kg), tetrahydrocannabinol (THC; 3.7 mg/kg), cannabinol (CBN; 0.155 mg/kg), or cannabichromene (CBC; 0.0375 mg/kg), and dorsal wound was inflicted (n=at least 3 mice per group). Cannabinoid solutions are prepared by dissolving pure cannabinoids in 100% ethanol (EtOH) to a stock concentration of 100 mg/ml. Further dilution was achieved by preparing a 1:1:18 working solution of 100% EtOH:Cremophor:1×PBS. 100 μl was administered via IP injection to each mouse every second day starting from the day of wound infliction.

[5] = system: CREB; experiment: CREB phosphorylation in healing wounds in vivo, immunofluorescence; design: species or system mice
Text: Thereafter, the inventors examined whether CREB is phosphorylated in healing wounds. The inventors performed full-thickness excisional wounds (as described above) and harvested wounds at 8 days post wound infliction.

[6] = system: tail skin sebaceous glands (SGs); experiment: DBL-induced acne in mouse tail skin in vivo; design: species or system mice; conditions: DBL intradermal at tail base every second day for 10 days, treated from day 4; 5 mg/kg INF extract, 1.6 mg/kg CBN
[7] = system: 5%-Imiquimod (IMQ) model of psoriasis; experiment: topical 5%-Imiquimod (IMQ) model of psoriasis in mice; type: in vivo
Protocol: The therapeutic potentials of five different cannabis strains were determined (namely, Infinity (INF), White Widow (WW), Cannatonic (CNT), Dance Hall (DH), and Green Crack (GC)), utilizing an in vivo setting of skin pathology. For this aim, the topical 5%-Imiquimod (IMQ) model of psoriasis (FIGS. 1A-1B) was employed. In this model, 62.5 mg of IMQ cream is applied topically on depilated dorsal skins of mice (Fits et al., 2009) every second day concurrent with administration of extracts. Extracts were administered at 5 mg/kg dose via intraperitoneal (i.p.) injection.
Examining the cannabinoid constituents of INF, the inventors next applied IMQ and treated mice with either control (vehicle only), the 5 mg/kg INF extract, 1.6 mg/kg CBN, 0.1 mg/kg CBG, 3.7 mg/kg THC, or 0.04 mg/kg CBC (FIG. 3A).
Further, the recruitment of CD3^+ T cells to the epidermis was examined in 5% IMQ-treated skins.

[8] = system: NF-kappa-B (p65; NF-κB) signaling; experiment: TNF-α-induced NF-κB (p65) translocation in Blimp1+ sebocytes, immunofluorescence; type: cell-based, mouse; conditions: serum starved 16 hours, TNF-α (FIGS. 8A-8B)
Protocol: In order to examine the underlying mechanism, the inventors assessed the effects of INF, THC and CBN in acne and whether it is mediated through downregulation of NF-kappa-B (p65; NF-κB) signaling. NFκB transcription factor is known to be active in acne and high expression of its target genes leads to enhanced proliferation and inflammation (Kang et al., 2005). The inventors utilized mouse primary sebaceous gland progenitors (Blimp1^+ sebocytes). Cells were serum starved for 16 hours and then either non-treated (NTC) or administered with TNF-α along with either DMSO (Ctrl), Infinity (INF) extract, CBN or THC (FIGS. 8A-8B). The inventors next performed immunofluorescence for activated NF-κB using specific antibodies. The present data clearly indicate that in response to TNF-α the NF-κB (p65) transcription factor translocates to the nucleus in Blimp1^+ sebocytes.

[9] = IMQ-treated mice, 5 mg/kg INF extract, 3.7 mg/kg THC (FIGS. 3B-3D)

Structure (SMILES)	levels of active pCREB^S133 or ATF1 (western blot) [1]	translocation of NF-kappa-B (p65) to the nucleus [2]	CREB phosphorylation (pCREB^S133) and translocation to the nucleus [3]	epidermal invaginations in treated skins, 8 days post wounding ([4]; CBG 0.11 mg/kg IP every second day (FIG. 10D))	regenerated hair follicles in wounds, 18 days ([4]; CBG 0.11 mg/kg IP every second day (FIGS. 10E-10F))	wound healing by single cannabinoids, compared with WW strain [4]	proliferation as indicated by the proliferation marker PCNA ([1]; HaCaT treated cells (FIG. 11C))	localisation of activated p-CREB in treated wounds ([5]; CBG-treated wounds (FIG. 11F))	activated pCREB^S133 in the epidermis adjacent to the wound ([5]; full-thickness excisional wounds, 8 days post wound infliction (FIGS. 11D-11E))	inhibition of NF-κB (p65) translocation, comparison between treatments (% nuclear NF-κB positive cells) ([2]; 10 μM (FIG. 4B))	SG cell hyperproliferation [6]	sebum over-production [6]	recruitment of CD3+ T cells to the epidermis ([7]; 5% IMQ-treated skins, harvested 8 days post administration (FIG. 5))	translocation of NFκB (p65) to the nucleus [8]	decreasing abnormal levels of proliferation [7, 9]	prevention of overgrowth of the epidermis [7, 9]
CCCCCc1cc(O)c2c(c1)OC(C)(CCC=C(C)C)C=C2 (centres unmarked) [CBC, cannabichromene]	only minimal (if any) effect															
CCCCCc1cc(O)c(C/C=C(\C)CCC=C(C)C)c(O)c1 [CBG, cannabigerol]	high phosphorylation of CREB and ATF	had no effect	highly phosphorylated	considerably more epidermal invaginations	striking number of regenerated hair follicles	healed comparably to the WW strain	increased proliferation	co-expressed with proliferative markers	dramatic increase							
CCCCCc1cc(O)c2c(c1)OC(C)(C)c1ccc(C)cc1-2 [CBN, cannabinol]	only minimal (if any) effect	strongly inhibited								best results of inhibition	prevented	prevented	substantially reduced	strongly inhibited		
CCCCCc1cc(O)c2c(c1)OC(C)(C)[C@@H]1CCC(C)=C[C@@H]21 [THC, tetrahydrocannabinol]	only minimal (if any) effect	strongly inhibited				to some extent								strongly inhibited	comparable	comparable
